We go through 13 molecules from patent US20230111310A1, “CARBOXYLIC ACID DERIVATIVE-SUBSTITUTED IMINO ARYL COMPOUND, PREPARATION METHOD THEREFOR, HERBICIDAL COMPOSITION AND USE THEREOF” (Qingdao Kingagroot Chemical Compound Co., Ltd., priority 2020, published 2023).

Structures are written as SMILES.

Common to all, as to test: Weeding effect in post-emergence stage
Holding throughout (type): in vivo
Conditions in all cases: Dose 15 g/ha; fresh weight control rate level

For one assay, the system named is Alopecurus japonicus. A digest of the protocol: (§1)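 Doses of 500, 250, 125, 60, 30, 15 and 7.5 g/ha, with methyl oleate synergist (1.5 liter/ha) and Tween 80 from acetone solution, applied by spray tower post-emergence (2–3 leaf stage). Weed control scored after 3 further greenhouse weeks, averaged over triplicates.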
Another assay has as its system Abutilon theophrasti. A digest of the protocol: as §1
The test system of a further assay is Digitaria sanguinalis. A digest of the protocol:
as §1

Another assay concerns Setaria viridis. A digest of the protocol: as §1
The subject of a further assay is Eleusine indica. In short, it runs like this: as §1
For the next assay, the system named is Echinochloa crusgalli. A digest of the protocol:
as §1

On to `CC(O/N=C/c1cc(-n2c(=O)cc(C(F)(F)F)n(C)c2=O)c(F)cc1Cl)C(=O)OCc1ccc(Cl)nc1` (stereo not drawn) [Compound 495], for which the “Weeding effect in post-emergence stage, Alopecurus japonicus (level)” value (from here on “Weeding effect … Alopecurus japonicus (level)”) with Alopecurus japonicus is listed as 5 (Level 5: growth control rate is above 85%). Also, in the assay on Abutilon theophrasti, the “Weeding effect in post-emergence stage, Abutilon theophrasti (level)” value (“Weeding effect … Abutilon theophrasti (level)” below) is given as 5 (Level 5: growth control rate is above 85%). Besides, in the assay on Digitaria sanguinalis, the “Weeding effect in post-emergence stage, Digitaria sanguinalis (level)” value (shortened to “Weeding effect … Digitaria sanguinalis (level)”) was 5 (Level 5: growth control rate is above 85%). In the assay on Setaria viridis, the “Weeding effect in post-emergence stage, Setaria viridis (level)” value (from here on “Weeding effect … Setaria viridis (level)”) is reported as 5 (Level 5: growth control rate is above 85%). Moreover, the “Weeding effect in post-emergence stage, Eleusine indica (level)” value (shortened to “Weeding effect … Eleusine indica (level)”) in the assay with Eleusine indica was 5 (Level 5: growth control rate is above 85%). In the assay with Echinochloa crusgalli, the “Weeding effect in post-emergence stage, Echinochloa crusgalli (level)” value (“Weeding effect … Echinochloa crusgalli (level)” below) is 5 (Level 5: growth control rate is above 85%).

Consider `COC(=O)C(CCO)O/N=C/c1cc(-n2c(=O)cc(C(F)(F)F)n(C)c2=O)c(F)cc1Cl` (stereo not drawn) [Compound 496], for which, in the assay with Alopecurus japonicus, the “Weeding effect … Alopecurus japonicus (level)” value was 5 (Level 5: growth control rate is above 85%). For the same molecule, the “Weeding effect … Abutilon theophrasti (level)” value in the assay on Abutilon theophrasti is reported as 5 (Level 5: growth control rate is above 85%). The “Weeding effect … Digitaria sanguinalis (level)” value in the assay with Digitaria sanguinalis was 5 (Level 5: growth control rate is above 85%). In addition, the “Weeding effect … Setaria viridis (level)” value in the assay on Setaria viridis is listed as 5 (Level 5: growth control rate is above 85%). For the same molecule, the “Weeding effect … Eleusine indica (level)” value with Eleusine indica is 5 (Level 5: growth control rate is above 85%). The “Weeding effect … Echinochloa crusgalli (level)” value in the assay on Echinochloa crusgalli is 5 (Level 5: growth control rate is above 85%).

With `COC(=O)C(CCCl)O/N=C/c1cc(-n2c(=O)cc(C(F)(F)F)n(C)c2=O)c(F)cc1Cl` (stereo not drawn) [Compound 497], the “Weeding effect … Alopecurus japonicus (level)” value with Alopecurus japonicus is 5 (Level 5: growth control rate is above 85%). The “Weeding effect … Abutilon theophrasti (level)” value with Abutilon theophrasti was 5 (Level 5: growth control rate is above 85%). Also, the “Weeding effect … Digitaria sanguinalis (level)” value in the assay on Digitaria sanguinalis is reported as 5 (Level 5: growth control rate is above 85%). In the assay with Setaria viridis, the “Weeding effect … Setaria viridis (level)” value is 5 (Level 5: growth control rate is above 85%). In the assay on Eleusine indica, the “Weeding effect … Eleusine indica (level)” value is reported as 5 (Level 5: growth control rate is above 85%). The “Weeding effect … Echinochloa crusgalli (level)” value with Echinochloa crusgalli was 5 (Level 5: growth control rate is above 85%).

As to `CC(O/N=C/c1cc(-n2c(=O)cc(C(F)(F)F)n(C)c2=O)c(F)cc1Cl)C(=O)OCCC1OCCO1` (stereo not drawn) [Compound 498], the “Weeding effect … Alopecurus japonicus (level)” value in the assay with Alopecurus japonicus is reported as 5 (Level 5: growth control rate is above 85%). For the same molecule, the “Weeding effect … Abutilon theophrasti (level)” value in the assay with Abutilon theophrasti is 5 (Level 5: growth control rate is above 85%). Moreover, in the assay with Digitaria sanguinalis, the “Weeding effect … Digitaria sanguinalis (level)” value is recorded as 5 (Level 5: growth control rate is above 85%). The “Weeding effect … Setaria viridis (level)” value with Setaria viridis is 5 (Level 5: growth control rate is above 85%). Also, the “Weeding effect … Eleusine indica (level)” value in the assay with Eleusine indica is listed as 5 (Level 5: growth control rate is above 85%). For the same molecule, the “Weeding effect … Echinochloa crusgalli (level)” value in the assay with Echinochloa crusgalli is 5 (Level 5: growth control rate is above 85%).

Regarding `CC(O/N=C/c1cc(-n2c(=O)cc(C(F)(F)F)n(C)c2=O)c(F)cc1Cl)C(N)=O` (stereo not drawn) [Compound 499], the “Weeding effect … Alopecurus japonicus (level)” value with Alopecurus japonicus is recorded as 5 (Level 5: growth control rate is above 85%). Moreover, the “Weeding effect … Abutilon theophrasti (level)” value in the assay on Abutilon theophrasti was 5 (Level 5: growth control rate is above 85%). In addition, the “Weeding effect … Digitaria sanguinalis (level)” value in the assay on Digitaria sanguinalis is given as 5 (Level 5: growth control rate is above 85%). For the same molecule, the “Weeding effect … Setaria viridis (level)” value in the assay on Setaria viridis was 5 (Level 5: growth control rate is above 85%). In the assay with Eleusine indica, the “Weeding effect … Eleusine indica (level)” value is given as 5 (Level 5: growth control rate is above 85%). For the same molecule, the “Weeding effect … Echinochloa crusgalli (level)” value in the assay with Echinochloa crusgalli is 5 (Level 5: growth control rate is above 85%).

Take `CC(Cl)=CCOC(=O)C(C)ON=Cc1cc(-n2c(=O)cc(C(F)(F)F)n(C)c2=O)c(F)cc1Cl` (stereo not drawn) [Compound 500]: the “Weeding effect … Alopecurus japonicus (level)” value with Alopecurus japonicus is on record as 5 (Level 5: growth control rate is above 85%). The “Weeding effect … Abutilon theophrasti (level)” value in the assay with Abutilon theophrasti is on record as 5 (Level 5: growth control rate is above 85%). In addition, in the assay with Digitaria sanguinalis, the “Weeding effect … Digitaria sanguinalis (level)” value is recorded as 5 (Level 5: growth control rate is above 85%). The “Weeding effect … Setaria viridis (level)” value in the assay on Setaria viridis is given as 5 (Level 5: growth control rate is above 85%). For the same molecule, in the assay on Eleusine indica, the “Weeding effect … Eleusine indica (level)” value is 5 (Level 5: growth control rate is above 85%). The “Weeding effect … Echinochloa crusgalli (level)” value with Echinochloa crusgalli is 5 (Level 5: growth control rate is above 85%).

In the case of `C=C(Cl)COC(=O)C(C)O/N=C/c1cc(-n2c(=O)cc(C(F)(F)F)n(C)c2=O)c(F)cc1Cl` (stereo not drawn) [Compound 501], the “Weeding effect … Alopecurus japonicus (level)” value in the assay on Alopecurus japonicus was 5 (Level 5: growth control rate is above 85%). Further, in the assay with Abutilon theophrasti, the “Weeding effect … Abutilon theophrasti (level)” value is on record as 5 (Level 5: growth control rate is above 85%). The “Weeding effect … Digitaria sanguinalis (level)” value with Digitaria sanguinalis is reported as 5 (Level 5: growth control rate is above 85%). In addition, the “Weeding effect … Setaria viridis (level)” value in the assay on Setaria viridis was 5 (Level 5: growth control rate is above 85%). The “Weeding effect … Eleusine indica (level)” value in the assay with Eleusine indica is recorded as 5 (Level 5: growth control rate is above 85%). The “Weeding effect … Echinochloa crusgalli (level)” value in the assay with Echinochloa crusgalli is on record as 5 (Level 5: growth control rate is above 85%).

For the molecule `CCN(CC)C(=O)C(C)ON=Cc1cc(-n2c(=O)cc(C(F)(F)F)n(C)c2=O)c(F)cc1Cl` (stereo not drawn) [Compound 502], the “Weeding effect … Alopecurus japonicus (level)” value in the assay on Alopecurus japonicus is on record as 5 (Level 5: growth control rate is above 85%). Moreover, the “Weeding effect … Abutilon theophrasti (level)” value in the assay on Abutilon theophrasti is on record as 5 (Level 5: growth control rate is above 85%). Also, in the assay on Digitaria sanguinalis, the “Weeding effect … Digitaria sanguinalis (level)” value is reported as 5 (Level 5: growth control rate is above 85%). Further, the “Weeding effect … Setaria viridis (level)” value in the assay on Setaria viridis is 5 (Level 5: growth control rate is above 85%). Moreover, in the assay on Eleusine indica, the “Weeding effect … Eleusine indica (level)” value is reported as 5 (Level 5: growth control rate is above 85%). The “Weeding effect … Echinochloa crusgalli (level)” value in the assay with Echinochloa crusgalli is listed as 5 (Level 5: growth control rate is above 85%).

For the molecule `CC(ON=Cc1cc(-n2c(=O)cc(C(F)(F)F)n(C)c2=O)c(F)cc1Cl)C(=O)NS(=O)(=O)CCl` (stereo not drawn) [Compound 503], the “Weeding effect … Alopecurus japonicus (level)” value with Alopecurus japonicus was 5 (Level 5: growth control rate is above 85%). For the same molecule, the “Weeding effect … Abutilon theophrasti (level)” value in the assay with Abutilon theophrasti is given as 5 (Level 5: growth control rate is above 85%). In the assay on Digitaria sanguinalis, the “Weeding effect … Digitaria sanguinalis (level)” value was 5 (Level 5: growth control rate is above 85%). The “Weeding effect … Setaria viridis (level)” value with Setaria viridis was 5 (Level 5: growth control rate is above 85%). The “Weeding effect … Eleusine indica (level)” value with Eleusine indica is 5 (Level 5: growth control rate is above 85%). Further, the “Weeding effect … Echinochloa crusgalli (level)” value with Echinochloa crusgalli is given as 5 (Level 5: growth control rate is above 85%).

Regarding `COC(=O)C(C)O/N=C/c1nc(-n2c(=O)cc(C(F)(F)F)n(C)c2=O)c(F)cc1Cl` (stereo not drawn) [Compound 504], in the assay on Alopecurus japonicus, the “Weeding effect … Alopecurus japonicus (level)” value is on record as 5 (Level 5: growth control rate is above 85%). In the assay with Abutilon theophrasti, the “Weeding effect … Abutilon theophrasti (level)” value is listed as 5 (Level 5: growth control rate is above 85%). In the assay on Digitaria sanguinalis, the “Weeding effect … Digitaria sanguinalis (level)” value is on record as 5 (Level 5: growth control rate is above 85%). For the same molecule, the “Weeding effect … Setaria viridis (level)” value with Setaria viridis is given as 5 (Level 5: growth control rate is above 85%). The “Weeding effect … Eleusine indica (level)” value in the assay with Eleusine indica is 5 (Level 5: growth control rate is above 85%). For the same molecule, the “Weeding effect … Echinochloa crusgalli (level)” value in the assay on Echinochloa crusgalli is listed as 5 (Level 5: growth control rate is above 85%).

Turning to `COC(=O)C(C)ON=Cc1nc(-n2c(=O)n(C)c(=S)n(C)c2=O)c(F)cc1Cl` (stereo not drawn) [Compound 511], the “Weeding effect … Alopecurus japonicus (level)” value with Alopecurus japonicus is on record as 5 (Level 5: growth control rate is above 85%). Also, the “Weeding effect … Abutilon theophrasti (level)” value in the assay with Abutilon theophrasti is on record as 5 (Level 5: growth control rate is above 85%). Also, the “Weeding effect … Digitaria sanguinalis (level)” value in the assay with Digitaria sanguinalis is listed as 5 (Level 5: growth control rate is above 85%). Also, the “Weeding effect … Setaria viridis (level)” value with Setaria viridis is reported as 5 (Level 5: growth control rate is above 85%). Moreover, in the assay on Eleusine indica, the “Weeding effect … Eleusine indica (level)” value is 5 (Level 5: growth control rate is above 85%). Also, the “Weeding effect … Echinochloa crusgalli (level)” value in the assay on Echinochloa crusgalli is reported as 5 (Level 5: growth control rate is above 85%).

As for `COC(=O)C(C)SN=Cc1cc(-n2c(=O)n(C)c(=S)n(C)c2=O)c(F)cc1Cl` (stereo not drawn) [Compound 692], the “Weeding effect … Alopecurus japonicus (level)” value in the assay on Alopecurus japonicus is given as 5 (Level 5: growth control rate is above 85%). Also, the “Weeding effect … Abutilon theophrasti (level)” value with Abutilon theophrasti was 5 (Level 5: growth control rate is above 85%). Also, the “Weeding effect … Digitaria sanguinalis (level)” value in the assay on Digitaria sanguinalis was 5 (Level 5: growth control rate is above 85%). In the assay with Setaria viridis, the “Weeding effect … Setaria viridis (level)” value is reported as 5 (Level 5: growth control rate is above 85%). For the same molecule, the “Weeding effect … Eleusine indica (level)” value with Eleusine indica was 5 (Level 5: growth control rate is above 85%). Besides, the “Weeding effect … Echinochloa crusgalli (level)” value with Echinochloa crusgalli is on record as 5 (Level 5: growth control rate is above 85%).

Regarding `COC(=O)C(C)SN=Cc1cc(-n2c(=O)cc(C(F)(F)F)n(C)c2=O)c(F)cc1Cl` (stereo not drawn) [Compound 730], the “Weeding effect … Alopecurus japonicus (level)” value with Alopecurus japonicus is given as 5 (Level 5: growth control rate is above 85%). Moreover, in the assay with Abutilon theophrasti, the “Weeding effect … Abutilon theophrasti (level)” value is reported as 5 (Level 5: growth control rate is above 85%). Besides, in the assay with Digitaria sanguinalis, the “Weeding effect … Digitaria sanguinalis (level)” value is reported as 5 (Level 5: growth control rate is above 85%). Besides, in the assay with Setaria viridis, the “Weeding effect … Setaria viridis (level)” value is reported as 5 (Level 5: growth control rate is above 85%). In addition, in the assay with Eleusine indica, the “Weeding effect … Eleusine indica (level)” value is 5 (Level 5: growth control rate is above 85%). In addition, the “Weeding effect … Echinochloa crusgalli (level)” value with Echinochloa crusgalli was 5 (Level 5: growth control rate is above 85%).
